Here are results for 13 compounds from patent publication US7855205B2, “Pyrimidinyl substituted fused-pyrrolyl compounds useful in treating kinase disorders” (Janssen Pharmaceutica NV, priority 2004, dated 2010).

SMILES strings stand for the structures.

For orientation: IC50 means the concentration that gives 50% inhibition.

One test addresses T1, CDK1:Cyclin-B (Homo sapiens, UniProt P06493).
T1 construct: purchased New England Biolabs, Beverly, Mass; 6020; host or cells: insect cells
Briefly: CDK1 Screening Assay. As to conditions: 33P-γ-ATP incorporation, 10 μM ATP. The class given is biochemical. How it is done: (§1) A kinase reaction mixture was prepared containing 50 mM Tris-HCl pH=8, 10 mM MgCl2, 0.1 mM […], 1 mM DTT, 10 μM ATP, 0.025 μM biotinylated histone-HI peptide substrate and […] per well ^33P-γ-ATP (2000-3000 Ci/mmol). 70 μL of the kinase reaction mixture was dispensed into the well of a streptavidin coated FlashPlate™ (Cat. # SMP103, NEN, Boston, Mass.). Then 1 μL of test compound stock in 100% DMSO was added to the wells resulting in a final concentration of 1% DMSO in the reaction with a 100 μL final reaction volume.
(§2) The CDK1:Cyclin-B protein was then diluted in 50 mM Tris-HCl pH=8.0, 0.1% BSA at a concentration of 1 ng per μL and 30 μL (30 ng enzyme per test well) was added to each well to initiate the reaction. The reaction was incubated for one hour at 30° C. At the end of the 1 h incubation, the reaction was terminated by aspirating the mixture from the plate and washing the wells twice with PBS containing 100 mM EDTA. The histone-H1 biotinylated peptide substrate became immobilized on the Flashplate™ and the incorporation of ^33P-γ-ATP was measured by reading the plate on a scintillation counter. Inhibition of the enzymatic activity of CDK1 was measured by observing a reduced amount of ^33P-γ-ATP incorporated into the immobilized peptide.
The CDK1 used was isolated from insect cells expressing both the human CDK1 catalytic subunit and its positive regulatory subunit cyclin B (New England Biolabs, Beverly, Mass., Cat. #6020).
(§3) • VEGF-R2, HER2 and (Biotin)[…]-Amide • RET kinases • CDK1 (Biotin)[…]-Amide • Aurora-A kinase Biotin-[…]-Amide

Another test addresses T2, VEGF-R2 (Rattus norvegicus, UniProt O08775).
T2 construct: polyhistidine (N)
Briefly: VEGF-R2 Screening Assay. The format is biochemical. As to conditions: 33P-γ-ATP incorporation, 10 μM ATP. How it is done:
as §2, with “Then 1 μL of test compound stock in 100% DMSO was added to the wells resulting in a final concentration of 1% DMSO in the reaction with a 100 μL final reaction volume. The CDK1:Cyclin-B” for “The CDK1:Cyclin-B”, “immobilized peptide. The VEGF-R kinase assay was carried out using the CDK kinase assay procedure except that the enzyme was replaced with the VEGF-R2 fusion protein containing a polyhistidine tag at the N-terminus followed by amino acids 786-1343 of the rat VEGF-R2 kinase domain (GenBank Accession #U93306).” for “immobilized peptide.”

The target in another test is T3, Aurora-A (Mus musculus, UniProt P97477).
T3 construct: made in house; host or cells: sf9 insect cells
T3 sequence (P97477 1-395): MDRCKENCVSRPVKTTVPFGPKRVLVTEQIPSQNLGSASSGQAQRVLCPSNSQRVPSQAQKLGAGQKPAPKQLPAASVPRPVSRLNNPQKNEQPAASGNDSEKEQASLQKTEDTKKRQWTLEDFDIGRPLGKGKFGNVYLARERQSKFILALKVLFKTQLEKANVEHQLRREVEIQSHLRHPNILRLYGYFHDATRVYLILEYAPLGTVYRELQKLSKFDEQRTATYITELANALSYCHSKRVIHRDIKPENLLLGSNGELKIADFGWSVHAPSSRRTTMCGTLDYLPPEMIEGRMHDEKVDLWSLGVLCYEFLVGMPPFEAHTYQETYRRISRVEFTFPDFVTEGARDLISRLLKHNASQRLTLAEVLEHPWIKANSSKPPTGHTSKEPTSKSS
Briefly: Aurora-A Screening Assay. The class given is biochemical, murine. As to conditions: 33P-γ-ATP incorporation, 10 μM ATP. Here is the method:
as §1, §2
The Aurora-A kinase assay was carried out using the CDK kinase assay procedure except that the enzyme was replaced with the full length protein encoding the murine Aurora-A (Accession# GB BC014711) expressed and purified from sf9 insect cells.
as §3

Test [1] concerns HeLa cervical adenocarcinoma. Briefly: Inhibition of cell proliferation (14C-thymidine incorporation), HeLa.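 Also: HeLa cells in 96-well scintillating plates, compound for 24 h then 24 h more with 14C-thymidine, counting label built into new DNA against DMSO-only control wells.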 The following applies: Homo sapiens. The class given is cell-based. In general terms: Uptake of a labelled nucleoside into DNA is a usual measure of proliferation.
A further test relates to HCT-116 colon carcinoma. Briefly: Inhibition of cell proliferation (14C-thymidine incorporation), HCT-116. The class given is cell-based. The following applies: Homo sapiens, HCT-116, HCT116. How it is done:
(§4) The ability of a test compound to inhibit the proliferation of cell growth was determined by measuring incorporation of ^14C-labelled thymidine into newly synthesized DNA within the cells. This method was used on cell lines derived from carcinomas originating from several tissues such as HeLa cervical adenocarcinoma (American Type Culture Collection (ATCC), Virginia, Cat. #CCL-2), A375 malignant melanoma (ATCC CRL-1619), HCT-116 colon carcinoma (CCL-247). In this way the effect of a compound on cell growth of cells with many different phenotypes can be determined. Cells were trypsinized and counted and 3000-8000 cells were added to each well of a 96-well CytoStar tissue culture treated scintillating microplate (Amersham #RPNQ0160) in complete medium in a volume of 100 μL. Cells were incubated for 24 hours in complete medium at 37° C. in an atmosphere containing 5% CO2.
(§5) Next, 1 μL of test compound in 100% DMSO was added to the wells of the plate. DMSO only was added to control wells. Cells were incubated for 24 more hours in complete medium at 37° C. in an atmosphere containing 5% CO2. Methyl ^14C-thymidine 56 mCi/mmol (NEN #NEC568 or Amersham #CFA532) was diluted in complete medium and 0.2 uCi/well was added to each well of the CytoStar plate in a volume of 20 μl. The plate was incubated for 24 hours at 37° C. plus 5% CO2 in drug plus ^14C-thymidine. The contents of the plate discarded into a ^14C radioactive waste container by inverting the plate and the plate was washed twice with 200 μL PBS.
(§6) 200 μL of PBS is added to each well. The top of the plate was sealed with a transparent plate sealer and a white plate backing sealer (Packard #6005199) was applied to the bottom of the plate. The degree of methyl ^14C-thymidine incorporation was quantified on a Packard Top Count.

A further test concerns A375 malignant melanoma. Briefly: Inhibition of cell proliferation (14C-thymidine incorporation), A375. The following applies: Homo sapiens, A-375. The format is cell-based, human. How it is done: as §4, §5, §6

T1 sequence (P06493 whole entry): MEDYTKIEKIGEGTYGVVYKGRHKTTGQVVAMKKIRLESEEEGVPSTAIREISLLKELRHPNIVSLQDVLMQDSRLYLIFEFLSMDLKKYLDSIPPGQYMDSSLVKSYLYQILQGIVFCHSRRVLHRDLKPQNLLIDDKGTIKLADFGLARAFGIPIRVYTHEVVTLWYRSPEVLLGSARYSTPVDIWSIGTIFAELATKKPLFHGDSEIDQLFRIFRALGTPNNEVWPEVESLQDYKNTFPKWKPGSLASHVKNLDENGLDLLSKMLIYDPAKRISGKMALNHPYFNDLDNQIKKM
T1 sequence (P14635 whole entry partner): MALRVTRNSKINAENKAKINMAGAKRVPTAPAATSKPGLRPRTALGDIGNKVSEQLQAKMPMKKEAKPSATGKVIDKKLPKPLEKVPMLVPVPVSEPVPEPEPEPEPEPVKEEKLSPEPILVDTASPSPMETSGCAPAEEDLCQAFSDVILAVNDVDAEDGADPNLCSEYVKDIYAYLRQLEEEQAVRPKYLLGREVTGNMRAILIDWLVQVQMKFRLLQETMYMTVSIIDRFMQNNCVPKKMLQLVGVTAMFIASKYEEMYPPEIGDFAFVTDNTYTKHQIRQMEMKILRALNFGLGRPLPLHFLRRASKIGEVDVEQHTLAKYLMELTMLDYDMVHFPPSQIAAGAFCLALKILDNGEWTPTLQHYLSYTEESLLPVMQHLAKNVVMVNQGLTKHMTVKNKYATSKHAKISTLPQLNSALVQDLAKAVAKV
T2 sequence (O08775 786-1343): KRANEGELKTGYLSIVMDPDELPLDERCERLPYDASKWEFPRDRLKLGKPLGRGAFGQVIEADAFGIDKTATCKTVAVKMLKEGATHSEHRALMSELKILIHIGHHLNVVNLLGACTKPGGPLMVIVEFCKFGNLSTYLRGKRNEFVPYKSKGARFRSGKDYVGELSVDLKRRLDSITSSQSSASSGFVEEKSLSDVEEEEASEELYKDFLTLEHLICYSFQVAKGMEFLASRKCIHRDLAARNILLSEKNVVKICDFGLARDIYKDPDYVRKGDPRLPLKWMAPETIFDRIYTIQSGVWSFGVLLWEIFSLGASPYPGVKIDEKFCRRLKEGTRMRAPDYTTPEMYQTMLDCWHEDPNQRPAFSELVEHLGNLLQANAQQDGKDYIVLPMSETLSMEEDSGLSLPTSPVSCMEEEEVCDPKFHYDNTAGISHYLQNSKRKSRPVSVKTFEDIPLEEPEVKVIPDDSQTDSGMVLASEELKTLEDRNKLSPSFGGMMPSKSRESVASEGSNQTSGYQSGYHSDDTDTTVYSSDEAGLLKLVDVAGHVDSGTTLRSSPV

In the case of `NC1CCC(Nc2nccc(-c3c[nH]c4ncccc34)n2)CC1` (mixture of isomers) [Cpd 43, (4-Aminocyclohexyl)-[4-(1H-pyrrolo[2,3-b]pyridin-3-yl)-pyrimidin-2-yl]-amine], the IC50 on CDK1:Cyclin-B worked out at 0.0066 µM; on VEGF-R2, 2.78 µM; on Aurora-A, 0.262 µM; in test [1] it was 0.00292 µM; in the test on HCT-116 colon carcinoma, 0.00297 µM; with A375 malignant melanoma, 0.00242 µM.
Turning to `CS(=O)(=O)n1cc(-c2ccnc(NC3CCCCC3)n2)c2cccnc21` [Cpd 67, Cyclohexyl-[4-(1-methanesulfonyl-1H-pyrrolo[2,3-b]pyridin-3-yl)pyrimidin-2-yl]-amine], the concentration for half-maximal inhibition (IC50) was 0.128 µM against CDK1:Cyclin-B; 1 µM at VEGF-R2; 2.36 µM on Aurora-A; 0.393 µM in test [1]; 0.298 µM in the test with HCT-116 colon carcinoma; 0.504 µM with A375 malignant melanoma.
In the case of `Cc1cccc(Nc2nccc(-c3c[nH]c4ncccc34)n2)c1C` [Cpd 34, (2,3-Dimethylphenyl)-[4-(1H-pyrrolo[2,3-b]pyridin-3-yl)-pyrimidin-2-yl]-amine], the IC50 against CDK1:Cyclin-B is 0.004 µM; on VEGF-R2, 0.618 µM; against Aurora-A, 0.238 µM; in test [1], 0.0114 µM; in the test on HCT-116 colon carcinoma it was 0.00137 µM; in the test on A375 malignant melanoma it was 0.0157 µM.
Consider `c1cnc2[nH]cc(-c3ccnc(NC4CCOCC4)n3)c2c1` [Cpd 60, (Tetrahydropyran-4-yl)-[4-(1H-pyrrolo[2,3-b]pyridin-3-yl)-pyrimidin-2-yl]-amine], for which the concentration for half-maximal inhibition (IC50) came to 0.0373 µM at CDK1:Cyclin-B; 2.46 µM on VEGF-R2; 1.51 µM on Aurora-A; 0.0411 µM in test [1]; 0.0175 µM in the test on HCT-116 colon carcinoma; 0.0417 µM in the test on A375 malignant melanoma.
For `FC(F)(F)c1ccccc1Nc1nccc(-c2c[nH]c3ncccc23)n1` [Cpd 29, (2-trifluoromethylphenyl)-[4-(1H-pyrrolo[2,3-b]pyridin-3-yl)-pyrimidin-2-yl]-amine], the half-inhibitory concentration (IC50) against CDK1:Cyclin-B is 0.056 µM; at VEGF-R2 it was 1.97 µM; at Aurora-A, 1 µM; in test [1], 0.392 µM; with HCT-116 colon carcinoma, 0.381 µM; in the test with A375 malignant melanoma, 0.403 µM.
Consider `c1cnc2[nH]cc(-c3ccnc(NC4CCCC4)n3)c2c1` [Cpd 14, Cyclopentyl-[4-(1H-pyrrolo[2,3-b]pyridin-3-yl)-pyrimidin-2-yl]-amine], for which the IC50 on CDK1:Cyclin-B came to 0.088 µM; against VEGF-R2, 2.23 µM; against Aurora-A, 0.885 µM; in test [1], 0.059 µM; in the test with HCT-116 colon carcinoma, 0.078 µM; in the test on A375 malignant melanoma it was 0.093 µM.
`c1cnc2[nH]cc(-c3ccnc(N[C@@H]4CC5CCC4C5)n3)c2c1` (stereo partly drawn) [Cpd 58, (2R)-Bicyclo[2.2.1]hept-2-yl-[4-(1H-pyrrolo[2,3-b]pyridin-3-yl)-pyrimidin-2-yl]-amine]: the IC50 on CDK1:Cyclin-B is 0.109 µM; against VEGF-R2 it was 1.54 µM; at Aurora-A, 0.566 µM; in test [1], 0.514 µM; in the test on HCT-116 colon carcinoma it was 0.222 µM; in the test with A375 malignant melanoma it was 0.277 µM.
Consider `CC(=O)n1cc(-c2ccnc(NC3CCCCC3)n2)c2cccnc21` [Cpd 68, Cyclohexyl-[4-(1-acetyl-1H-pyrrolo[2,3-b]pyridin-3-yl)pyrimidin-2-yl]-amine], for which the IC50 stood at 0.0308 µM against CDK1:Cyclin-B; 1 µM against VEGF-R2; 0.32 µM against Aurora-A; 0.023 µM in test [1]; 0.0129 µM in the test on HCT-116 colon carcinoma; 0.0317 µM in the test on A375 malignant melanoma.
`Cc1cc(CCN(C)C)ccc1Nc1nccc(-c2c[nH]c3ncccc23)n1` [Cpd 46]: the concentration for half-maximal inhibition (IC50) at CDK1:Cyclin-B was determined as 0.0016 µM; at VEGF-R2 it was 0.341 µM; against Aurora-A, 0.466 µM; in test [1] it was 0.000963 µM; in the test on HCT-116 colon carcinoma it was 0.000545 µM; with A375 malignant melanoma, 0.000634 µM.
For the compound `CNCC[C@H]1CC[C@H](Nc2nccc(-c3c[nH]c4ncccc34)n2)CC1` [Cpd 78, trans-[4-(2-Methylaminoethyl)-cyclohexyl]-[4-(1H-pyrrolo[2,3-b]pyridin-3-yl)-pyrimidin-2-yl]-amine], the IC50 on CDK1:Cyclin-B was 0.00426 µM; on VEGF-R2, 6.71 µM; at Aurora-A it was 1.01 µM; in test [1], 0.00374 µM; with HCT-116 colon carcinoma, 0.00313 µM; with A375 malignant melanoma, 0.00225 µM.
`c1cnc2[nH]cc(-c3ccnc(NC4CCCCCC4)n3)c2c1` [Cpd 15, Cycloheptyl-[4-(1H-pyrrolo[2,3-b]pyridin-3-yl)-pyrimidin-2-yl]-amine]: the IC50 at CDK1:Cyclin-B was 0.012 µM; against VEGF-R2, 2.11 µM; against Aurora-A it was 0.166 µM; in test [1], 0.0082 µM; with HCT-116 colon carcinoma it was 0.00756 µM; in the test on A375 malignant melanoma it was 0.00467 µM.
As for `CC(=O)NC1CCN(c2nccc(-c3c[nH]c4ncccc34)n2)CC1` [Cpd 63, N-{1-[4-(1H-pyrrolo[2,3-b]pyridin-3-yl)-pyrimidin-2-yl]-piperidin-4-yl}acetamide], the concentration for half-maximal inhibition (IC50) on CDK1:Cyclin-B was determined as 2.11 µM; against VEGF-R2, 10 µM; at Aurora-A, 4.19 µM; in test [1], 34.7 µM; in the test with HCT-116 colon carcinoma, 40 µM; with A375 malignant melanoma it was 16.4 µM.
Regarding `c1cnc2[nH]cc(-c3ccnc(NC4CCCCC4)n3)c2c1` [Cpd 13, Cyclohexyl-[4-(1H-pyrrolo[2,3-b]pyridin-3-yl)-pyrimidin-2-yl]-amine], the IC50 came out at 0.014 µM against CDK1:Cyclin-B; 2.08 µM against VEGF-R2; 0.263 µM against Aurora-A; 0.031 µM in test [1]; 0.032 µM with HCT-116 colon carcinoma; 0.033 µM with A375 malignant melanoma.
